Consider one compound from patent EP4692094A1 (Beijing Konruns Pharmaceutical Co., Ltd., priority 2023, dated 2024).

pIC50: −log10 of the molar value.

One may read the pIC50 as the IC50 on a negative log10 scale, so that one unit is a factor of ten. For orientation: AUC(0-inf) means the area under the concentration-time curve extrapolated to infinity. A lower AUC(0-inf) goes with less exposure. What is called Cmax is the maximum level reached in the sampled fluid or tissue. Broadly, the Tmax is the time at which the peak concentration occurs.

The target of one data set is T1, KAT6A (Homo sapiens, UniProt Q92794).
T1 construct: purchased active motife (Active Motif) 81223
T1 sequence (Q92794 whole entry): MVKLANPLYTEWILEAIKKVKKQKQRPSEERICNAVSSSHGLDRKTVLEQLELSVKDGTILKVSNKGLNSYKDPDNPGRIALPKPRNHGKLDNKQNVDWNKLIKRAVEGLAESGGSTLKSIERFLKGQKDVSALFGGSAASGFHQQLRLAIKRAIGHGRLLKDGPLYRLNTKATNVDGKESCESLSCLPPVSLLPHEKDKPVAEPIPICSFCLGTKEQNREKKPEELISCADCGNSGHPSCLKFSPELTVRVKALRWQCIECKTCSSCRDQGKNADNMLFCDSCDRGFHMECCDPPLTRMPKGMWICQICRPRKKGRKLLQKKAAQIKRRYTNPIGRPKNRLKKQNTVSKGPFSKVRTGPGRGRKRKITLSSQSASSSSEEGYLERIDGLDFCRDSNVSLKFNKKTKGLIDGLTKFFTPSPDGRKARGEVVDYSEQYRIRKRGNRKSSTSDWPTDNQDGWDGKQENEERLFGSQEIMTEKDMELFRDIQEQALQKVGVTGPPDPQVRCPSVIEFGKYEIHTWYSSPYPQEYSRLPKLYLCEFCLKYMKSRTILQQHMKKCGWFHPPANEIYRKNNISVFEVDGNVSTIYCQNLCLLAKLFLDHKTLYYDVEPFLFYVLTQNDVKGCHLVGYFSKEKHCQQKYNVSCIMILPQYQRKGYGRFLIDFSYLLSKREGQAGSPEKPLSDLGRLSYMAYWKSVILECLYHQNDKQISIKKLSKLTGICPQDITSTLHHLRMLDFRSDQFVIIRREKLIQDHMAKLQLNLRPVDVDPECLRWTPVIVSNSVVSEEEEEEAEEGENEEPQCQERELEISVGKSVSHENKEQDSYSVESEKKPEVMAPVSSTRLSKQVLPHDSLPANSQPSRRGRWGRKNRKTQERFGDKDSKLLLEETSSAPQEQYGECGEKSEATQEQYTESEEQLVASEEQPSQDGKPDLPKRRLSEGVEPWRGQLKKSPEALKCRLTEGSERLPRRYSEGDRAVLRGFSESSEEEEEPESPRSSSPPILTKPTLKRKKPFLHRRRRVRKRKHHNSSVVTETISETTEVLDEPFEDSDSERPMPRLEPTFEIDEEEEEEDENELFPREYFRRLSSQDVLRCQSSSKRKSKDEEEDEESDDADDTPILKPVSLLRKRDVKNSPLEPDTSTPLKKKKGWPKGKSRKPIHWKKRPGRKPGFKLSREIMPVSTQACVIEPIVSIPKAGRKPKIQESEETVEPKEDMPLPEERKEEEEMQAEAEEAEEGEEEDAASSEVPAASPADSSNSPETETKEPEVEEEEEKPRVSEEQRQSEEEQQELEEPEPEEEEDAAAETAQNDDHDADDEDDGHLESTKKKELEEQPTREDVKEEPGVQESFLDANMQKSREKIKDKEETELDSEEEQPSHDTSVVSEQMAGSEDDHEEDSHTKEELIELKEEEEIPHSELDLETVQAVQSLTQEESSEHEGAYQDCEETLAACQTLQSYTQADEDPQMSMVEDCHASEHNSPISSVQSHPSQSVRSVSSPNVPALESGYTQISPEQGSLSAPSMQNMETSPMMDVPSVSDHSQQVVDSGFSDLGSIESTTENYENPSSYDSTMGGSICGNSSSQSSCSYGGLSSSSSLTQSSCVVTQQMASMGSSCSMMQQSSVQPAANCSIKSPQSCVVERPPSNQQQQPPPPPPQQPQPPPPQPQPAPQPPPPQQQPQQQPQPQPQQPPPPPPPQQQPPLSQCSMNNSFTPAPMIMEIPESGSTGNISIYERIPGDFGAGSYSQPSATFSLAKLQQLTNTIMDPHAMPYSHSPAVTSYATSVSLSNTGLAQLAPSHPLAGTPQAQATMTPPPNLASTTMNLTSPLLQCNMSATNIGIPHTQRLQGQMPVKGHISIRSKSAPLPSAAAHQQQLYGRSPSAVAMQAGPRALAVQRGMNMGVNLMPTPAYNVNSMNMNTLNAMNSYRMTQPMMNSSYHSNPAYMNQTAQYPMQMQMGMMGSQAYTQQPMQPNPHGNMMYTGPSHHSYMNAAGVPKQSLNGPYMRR
Nature of the data set: Enzymatic activity assay for KAT6A acetyltransferase (TR-FRET, acetylation of histone substrate H3). Type of data set: biochemical. Summed up: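 TR-FRET detection of biotinylated H3 acetylation by KAT6A with acetyl-CoA; compounds in 10-point 3-fold dilution (0.5% DMSO final) preincubated with enzyme 10 min at 25 °C, then 90 min reaction and 60 min Eu-antibody/ULight-SA detection at 25 °C. HTRF 665/615 ratio normalised to DMSO (0%) and top-dose control (100%); IC50 by nonlinear fit.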

The nature of data set [1]: Assay for plasma protein binding rate (equilibrium dialysis), human plasma. Format: in vitro ADME. The note with it: dialysis 6 h at 37 °C, read-out: Human (Fu%). The method, then: (§1) 1.1 Preparation of compounds: The compounds prepared in the examples were each dissolved in dimethylsulfoxide to give solutions at a concentration of 10 mmol/L. • 1) The example compounds were each diluted from 10 mmol/L stock solution to 0.2 mmol/L, i.e., 1 µL of the compound was added to 49 µL of DMSO; • 2) 3 µL of 0.2 mmol/L test compounds were added to 597 µL of blood plasma, and the mixtures were vortexed at 1000 rpm for 2 min; • 3) 50 µL of the plasma containing the drug in 2) was taken, 50 µL of PBS was added, and 300 µL of methanol internal standard* was added to serve as a sample T0; • 4) 120 µL of the plasma containing the drug in 2) was taken and added to one side of an HTD device membrane, and 120 µL of PBS was added to the other side of the membrane; a breathable film was covered, and the plasma and the residual sample in 2) were balanced at 37 °C (100 rpm and 5% CO2) for 6 h; • 5) 50 µL of the dialyzed plasma side sample was taken, 50 µL of PBS was added, and 300 µL of methanol internal standard* was added to serve as a sample P; • 6) 50 µL of the dialyzed PBS side sample was taken, 50 µL of blank plasma was added, and 300 µL of methanol internal standard* was added to serve as a sample B; • 7) 50 µL of the plasma containing the drug in 2) was taken, 50 µL of PBS was added, and 300 µL of methanol internal standard* was added to serve as a sample T6; • 8) All samples were vortexed, mixed homogeneously, and then centrifuged at 3220 g for 40 min at 4 °C; • 9) 100 µL of the supernatant and 100 µL of purified water were mixed homogenously for liquid chromatography-mass spectrometry.
(§2) An internal standard method was used, and the plasma protein binding rate, recovery rate, and residual percentage were calculated by using Excel according to the ratio of the peak area of the sample to the peak area of the internal standard. Free rate(%) = (RatioB)/(RatioP) × 100% [formula] Binding rate(%) = 100%−Free rate% [formula] Recovery rate(%) = (RatioB + RatioP)/(RatioT0) × 100% [formula] Remaining percentage(%) = (RatioT6)/(RatioT0) × 100% [formula]
(§3) RatioB: a ratio of the peak area of the test substance on the PBS side to the peak area of the internal standard; RatioP: a ratio of the peak area of the test substance on the plasma side to the peak area of the internal standard; RatioT6: a ratio of the peak area of the sample after incubation with the test substance for 6 h to the peak area of the internal standard; RatioT0: a ratio of the peak area of the sample after incubation with the test substance for 0 h to the peak area of the internal standard. Table 8. Plasma protein binding rate (Fu%) data for various species of example compounds
In general terms: In equilibrium dialysis free small molecules cross a membrane that holds back macromolecules.

A short description of data set [2]: Assay for plasma protein binding rate (equilibrium dialysis), mouse plasma. Format: in vitro ADME. The note with it: dialysis 6 h at 37 °C, read-out: Mouse (Fu%). How it is done: as §1, §2, §3
Data set [3] in a line: Assay for plasma protein binding rate (equilibrium dialysis), rat plasma. Type of data set: in vitro ADME. The note with it: dialysis 6 h at 37 °C, read-out: Rat (Fu%). The method, then:
as §1, §2, §3

Data set [4] is described as follows: Assay for plasma protein binding rate (equilibrium dialysis), dog plasma. Type of data set: in vitro ADME. The note with it: dialysis 6 h at 37 °C, read-out: Dog (Fu%). How it is done: as §1, §2, §3
Data set [5] in a line: In-vivo pharmacokinetic study in rats. On the set-up: species or system SD female rats. The note with it: female, SD, rat, plasma, po, intragastric administration, 5 mg/kg. The method, then: 1.1 Instrument: high-performance liquid chromatograph: SHIMADZU LC-30AD; mass spectrum: AB SCIEX mass spectrometer Triple Quad 5500; all measured data were calculated and processed using Microsoft Excel, and relevant pharmacokinetic parameters were calculated using WinNonlin software. The main obtained kinetic parameters are Tmax, T1/2, Cmax, AUC0-24 h, and AUCinf. […] Sample injection amount: 1 µL.
1.2 Animals: three SD female rats were used. The body weight range was 180-300 g. After purchase, the rats were bred in the experimental animal center for two days for later use. The rats were fasted 12 h before administration and 4 h after administration, and given ad libitum access to water during the assay. Blood samples were taken at predetermined time points after intragastric administration.
1.3 Vehicle: 0.5% HPMC (hydroxypropyl methylcellulose) + 0.4% Tween80 + 99.1% water. Preparation of intragastric administration solution: The compound was precisely weighed, the vehicle was added, and then the drug was completely dissolved by ultrasonication at room temperature for 5 min and prepared into a 0.5 mg/mL solution. After the intragastric administration, blood samples were taken at 0.083 h, 0.25 h, 0.5 h, 1.0 h, 2.0 h, 4.0 h, 7.0 h, and 24 h. The blood collection mode is as follows: 0.2 mL of the jugular vein blood was collected, EDTA-K2 was used as an anticoagulation agent, the collected blood sample was transferred into a microcentrifuge tube containing the anticoagulation agent, and the tube was centrifuged at 4 °C and 4000 g for 5 min to separate the plasma. All plasma samples collected were stored at -75±15 °C until analysis.
The compound was precisely weighed and prepared into a standard curve working solution and a quality control working solution at different concentrations. The blank plasma was added and prepared into a plasma standard curve and a quality control sample. LC/MS/MS analysis was performed after pretreatment using a protein precipitation method, and then the concentration of the compounds described above in the plasma was measured. All measured data were collected and processed by the relevant software, and pharmacokinetic parameters were calculated using Winnonlin software. Table 9. Pharmacokinetic parameters of some compounds in the examples in rats

Compound `COc1cc2c(cc1S(=O)(=O)Nc1noc3cc(Cn4cccn4)nc(OC)c13)CCO2` [Example 60, N-(6-((1H-Pyrazol-1-yl)methyl)-4-methoxyisoxazolo[4,5-c]pyridin-3-yl)-6-methoxy-2,3-dihvdrobenzofuran-5-sulfonamide] gave a pIC50 against KAT6A of 9.00. In addition, the fraction unbound at 6 h, 1 µM in data set [1] was 0.0175; in data set [2] it was 0.0358; in data set [3], 0.0516; in data set [4], 0.0345. The compound further returned an AUC(0-inf) in data set [5] of 26700 ng·h/mL. The compound further returned a Cmax in data set [5] of 2310 ng/mL. For the same compound, in data set [5], the time to peak (Tmax) came out at 2.67 h. In data set [5] (read-out: AUC0-24h), the AUC(0-t) is 26200 ng·h/mL.
